Holding throughout (assay type): cell-based
The subject of assay [1] is Fusarium venenatum WTY842-1-11. The assay can be described thus: Sensitivity testing of Fusarium venenatum WTY842-1-11 to FdU (plug growth on VNO3RLMT). Conditions: 14 days. As to the method: For a thymidine kinase gene (tk) to be useful as a negatively selectable marker, a fungus must be […] to rather high concentrations of the nucleoside analog 5-fluoro-deoxyuridine (FdU). In order to ascertain the degree of sensitivity of Fusarium venenatum WTY842-1-11 to FdU, a one week old culture of Fusarium venenatum WTY842-1-11 was prepared by plating a colonized agar plug of the strain taken from a 10% glycerol stock, which had been stored at −140° C., onto a VNO3RLMT plate and incubating in a ChexAll Instant Seal Sterilization Pouch (Fisher Scientific, Pittsburgh, Pa., USA) for 7 days at 26-28° C. After 7 days plugs were cut sub-marginally from the one week old culture and placed face down on VNO3RLMT medium supplemented with different concentrations of FdU (0 to 500 μM) (Sigma Chemical Co., St. Louis, Mo., USA) in 6 well plates. The plates were incubated at 26-28° C. in open ZIPLOC® bags (S.C. Johnson Home Storage, Inc., Racine, Wis., USA) for 14 days, after which the extent of growth at each FdU concentration was recorded.

For assay [2], the system named is Fusarium venenatum WTY1449-03-03 (bar+, tk+). The assay can be described thus: Growth of spores of bar+, tk+ strain on FdU- and uridine-supplemented VNO3RLMT plates. Conditions: 6 days, 28° C. The method, then:
To this end the bar+, tk+ strain Fusarium venenatum WTY1449-03-03 was revived on VNO3RLMT-BASTA™ plates (as described in Example 1) and induced to produce spores as described in Example 5. After harvesting and washing, the spores were plated (50,000 spores per 14 cm diameter plate) to FdU-supplemented VNO3RLMT plates containing 50 μM FdU and varying concentrations of uridine (0.1-1 mM). These plates were incubated at 28° C. in ChexAll Instant Seal Sterilization Pouches for 6 days, after which they were evaluated for growth.

For assay [3], the system named is Fusarium venenatum EmY1154-46-4.3 (pyrG-deleted). The assay can be described thus: Germination efficiency of spores of pyrG-deleted strain on uridine- and FdU-supplemented media. As to the method: Germination efficiency of spores from the pyrG-deleted Fusarium venenatum strain EmY1154-46-4.3 on uridine- and FdU-supplemented media was tested. Spores of Fusarium venenatum EmY1154-46-4.3 were generated as described in Example 5 using RA medium supplemented with 10 mM uridine. Fifty spores in a volume of 200 μl were aliquoted to each of 45 VNO3RLMT plates (14 cm diameter) supplemented with 0, 25, or 50 μM FdU and 0, 0.01, 0.05, 0.1, or 0.25 mM uridine. Triplicate plates of each combination of FdU and uridine were set up and incubated in ChexAll Instant Seal Sterilization Pouches at 26° C. for 10 days.

Assay [4] deals with Fusarium venenatum WTY1449-9-1 (tk-). The assay can be described thus: Reconstruction experiment, growth on FdU-supplemented minimal media, tk- strain. The conditions noted are these: 50 μM FdU. As to the method: (§1) To determine whether very low uridine concentrations could confer resistance to FdU in a tk+ strain, a reconstruction experiment was performed. The tk+ strain Fusarium venenatum WTY1449-3-3 and the tk− strain Fusarium venenatum WTY1449-9-1 were used. Spores of each strain were induced and plated at 50 spores per plate (Fusarium venenatum WTY1449-9-1) or 50,000 spores per 14 cm diameter plate (Fusarium venenatum WTY1449-3-3). In addition, a combination of WTY1449-3-3 and WTY1449-9-1 spores, […], were mixed and plated. All plates contained VNO3RLMT supplemented with 50 μM FdU. The uridine concentration in the plates was 1, 0.5, 0.25, or 0.1 mM. Each treatment was performed in triplicate.
(§2) Colonies appearing on the plates on which mixtures of tk+ and tk− spores had been plated were sub-cultured to fresh plates of VNO3RLMT medium supplemented with 50 μM FdU (NO uridine). An equivalent number of samples were also sub-cultured from the background growth (3 colonies per mixed plate) to VNO3RLMT+50 μM FdU (No uridine). In addition, colonies and background growth were sub-cultured from pure tk− plates and pure tk+ plates to plates of VNO3RLMT+50 μM FdU (no uridine). […]

Assay [5] deals with Fusarium venenatum WTY1449-3-3 (tk+). The assay can be described thus: Reconstruction experiment, growth on FdU-supplemented minimal media, tk+ strain. The conditions noted are these: 50 μM FdU. As to the method: as §1, §2

The record followed here is patent publication US20110223671A1, “Methods for using positively and negatively selectable genes in a filamentous fungal cell” (priority 2008, published 2011).

Take `O=c1[nH]c(=O)n([C@H]2C[C@H](O)[C@@H](CO)O2)cc1F` [FdU, 5-fluoro-deoxyuridine]: the “sensitivity (extent of growth) to FdU” value in assay [1] (FdU 0 to 500 μM, VNO3RLMT, 26-28° C.) is “insensitive”. The “FdU concentration at which growth was slightly reduced” value in assay [1] (compared to concentrations of 50 μM and below) is “greater than 100 μM”. In addition, the growth result is “extensive growth” in assay [2] (50 μM FdU plus uridine 0.1-1 mM); “no growth” in assay [2] (50 μM FdU, without uridine); “grew well” in assay [4] (all concentrations of uridine and medium lacking uridine); “grew as a uniform haze” in assay [5] (uridine 0.1-1 mM plates). Also, the spore germination frequency result in assay [3] (25 and 50 μM FdU, uridine 0.1 mM, 75% in the absence of FdU) is reported as “approximately 50%”. Also, the spore germination entry in assay [3] (25 or 50 μM FdU, uridine 0.01 mM, 10 days, 26° C.) is on record as “could not germinate”. Further, the results for the growth after sub-culture result in assay [4] (uridine-deficient media) and in assay [5] (uridine-deficient media) were “grew normally” and “could absolutely not grow”, respectively.
